Test results: the supplement of paper PMC10307832

Key:
Assay in all cases: relative viability (nuclei count vs DMSO), 5 days (fraction); higher = more cells survive
NCI-H3122 = system: NCI-H3122
Outline: (§1)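 For relative viability, nuclei counts in treated wells were divided by those in vehicle wells. Lung cancer cell lines had been pin-tool dosed in 1536-well plates the day after seeding and cultured for 5 days, then fixed and stained in one step (final 0.05% Triton X-100, 1% formaldehyde, 1 ug/ml Hoechst) and imaged at 4×. Doses were one drug alone or a fixed anchor-drug dose plus five library-drug doses (not always all listed) in √10 steps, and values are duplicate-plate medians.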

SK-LU-1 = system: SK-LU-1
Outline: as §1

NCI-H1666 = system: NCI-H1666
Outline: as §1

EMC-BAC-2 = system: EMC-BAC-2
Outline: as §1

LXF-289 = system: LXF-289
Outline: as §1

LK-2 = system: LK-2
Outline: as §1

EPLC-272H = system: EPLC-272H
Outline: as §1

NCI-H322M = system: NCI-H322M
Outline: as §1

NCI-H23 = system: NCI-H23
Outline: as §1

LOU-NH91 = system: LOU-NH91
Outline: as §1

NCI-H1975 = system: NCI-H1975
Outline: as §1

NCI-H2126 = system: NCI-H2126
Outline: as §1

HCC-827 = system: HCC-827
Outline: as §1

SW 1573 = system: SW 1573
Outline: as §1

LU99A = system: LU99A
Outline: as §1

NCI-H2085 = system: NCI-H2085
Outline: as §1

ChaGo-K-1 = system: ChaGo-K-1
Outline: as §1

RERF-LC-KJ = system: RERF-LC-KJ
Outline: as §1

HCC-78 = system: HCC-78
Outline: as §1

NCI-H2405 = system: NCI-H2405
Outline: as §1

For `NC(=O)Nc1cc(-c2cccc(F)c2)sc1C(=O)N[C@H]1CCCNC1` [AZD7762] + CC1(C)CCC(c2ccc(Cl)cc2)=C(CN2CCN(c3ccc(C(=O)NS(=O)(=O)c4ccc(N[C@H](CCN5CCOCC5)CSc5ccccc5)c(S(=O)(=O)C(F)(F)F)c4)cc3)CC2)C1 [Navitoclax] (partner 0.5 µM), the relative viability (NCI-H3122; first compound 0.01 µM) was 0.97, the relative viability (NCI-H3122; first compound 0.03162 µM) was 1.03 and the relative viability (NCI-H3122; first compound 0.1 µM) was 1.01. For the same compound, the relative viability (NCI-H3122; first compound 0.3162 µM) was 0.995, the relative viability (NCI-H3122; first compound 1 µM) was 1.05 and the relative viability (SK-LU-1; first compound 0.01 µM) was 0.895. The relative viability (SK-LU-1; first compound 0.03162 µM) was 0.649, the relative viability (SK-LU-1; first compound 0.1 µM) was 0.251 and the relative viability (SK-LU-1; first compound 0.3162 µM) was 0.103. For the same compound, the relative viability (SK-LU-1; first compound 1 µM) was 0.138, the relative viability (NCI-H1666; first compound 0.01 µM) was 1.24 and the relative viability (NCI-H1666; first compound 0.03162 µM) was 1.36. The relative viability (NCI-H1666; first compound 0.1 µM) was 1.23, the relative viability (NCI-H1666; first compound 0.3162 µM) was 0.797 and the relative viability (NCI-H1666; first compound 1 µM) was 0.661. It also gave a relative viability (EMC-BAC-2; first compound 0.01 µM) of 1.22, a relative viability (EMC-BAC-2; first compound 0.03162 µM) of 1.11 and a relative viability (EMC-BAC-2; first compound 0.1 µM) of 1.16. For the same compound, the relative viability (EMC-BAC-2; first compound 0.3162 µM) was 1.18, the relative viability (EMC-BAC-2; first compound 1 µM) was 1.18 and the relative viability (LXF-289; first compound 0.01 µM) was 0.943. It also gave a relative viability (LXF-289; first compound 0.03162 µM) of 0.962, a relative viability (LXF-289; first compound 0.1 µM) of 0.949 and a relative viability (LXF-289; first compound 0.3162 µM) of 1. The relative viability (LXF-289; first compound 1 µM) was 1.03, the relative viability (LK-2; first compound 0.01 µM) was 0.849 and the relative viability (LK-2; first compound 0.03162 µM) was 0.822. For the same compound, the relative viability (LK-2; first compound 0.1 µM) was 0.838, the relative viability (LK-2; first compound 0.3162 µM) was 0.756 and the relative viability (LK-2; first compound 1 µM) was 0.607. The relative viability (EPLC-272H; first compound 0.01 µM) was 1.17, the relative viability (EPLC-272H; first compound 0.03162 µM) was 1.18 and the relative viability (EPLC-272H; first compound 0.1 µM) was 1.15. It also gave a relative viability (EPLC-272H; first compound 0.3162 µM) of 1.37, a relative viability (EPLC-272H; first compound 1 µM) of 0.783 and a relative viability (NCI-H322M; first compound 0.01 µM) of 1.14. It also gave a relative viability (NCI-H322M; first compound 0.03162 µM) of 1.33, a relative viability (NCI-H322M; first compound 0.1 µM) of 1.29 and a relative viability (NCI-H322M; first compound 0.3162 µM) of 1.22. It also gave a relative viability (NCI-H322M; first compound 1 µM) of 1.03, a relative viability (NCI-H23; first compound 0.01 µM) of 0.983 and a relative viability (NCI-H23; first compound 0.03162 µM) of 0.886. It also gave a relative viability (NCI-H23; first compound 0.1 µM) of 0.905, a relative viability (NCI-H23; first compound 0.3162 µM) of 0.783 and a relative viability (NCI-H23; first compound 1 µM) of 0.464. For the same compound, the relative viability (LOU-NH91; first compound 0.01 µM) was 0.753, the relative viability (LOU-NH91; first compound 0.03162 µM) was 0.673 and the relative viability (LOU-NH91; first compound 0.1 µM) was 0.619. The relative viability (LOU-NH91; first compound 0.3162 µM) was 0.562, the relative viability (LOU-NH91; first compound 1 µM) was 0.4 and the relative viability (NCI-H1975; first compound 0.01 µM) was 1.03. The relative viability (NCI-H1975; first compound 0.03162 µM) was 0.953, the relative viability (NCI-H1975; first compound 0.1 µM) was 1.11 and the relative viability (NCI-H1975; first compound 0.3162 µM) was 0.938. For the same compound, the relative viability (NCI-H1975; first compound 1 µM) was 0.676, the relative viability (NCI-H2126; first compound 0.01 µM) was 0.811 and the relative viability (NCI-H2126; first compound 0.03162 µM) was 0.866. For the same compound, the relative viability (NCI-H2126; first compound 0.1 µM) was 0.889, the relative viability (NCI-H2126; first compound 0.3162 µM) was 0.79 and the relative viability (NCI-H2126; first compound 1 µM) was 0.91. The relative viability (HCC-827; first compound 0.01 µM) was 1, the relative viability (HCC-827; first compound 0.03162 µM) was 0.918 and the relative viability (HCC-827; first compound 0.1 µM) was 0.991. The relative viability (HCC-827; first compound 0.3162 µM) was 0.94, the relative viability (HCC-827; first compound 1 µM) was 0.93 and the relative viability (SW 1573; first compound 0.01 µM) was 1.19. For the same compound, the relative viability (SW 1573; first compound 0.03162 µM) was 1.12, the relative viability (SW 1573; first compound 0.1 µM) was 1.21 and the relative viability (SW 1573; first compound 0.3162 µM) was 0.764. The relative viability (SW 1573; first compound 1 µM) was 0.887, the relative viability (LU99A; first compound 0.01 µM) was 0.81 and the relative viability (LU99A; first compound 0.03162 µM) was 0.869. It also gave a relative viability (LU99A; first compound 0.1 µM) of 0.718, a relative viability (LU99A; first compound 0.3162 µM) of 0.665 and a relative viability (LU99A; first compound 1 µM) of 0.514. For the same compound, the relative viability (NCI-H2085; first compound 0.01 µM) was 1.27, the relative viability (NCI-H2085; first compound 0.03162 µM) was 1.11 and the relative viability (NCI-H2085; first compound 0.1 µM) was 1.24. For the same compound, the relative viability (NCI-H2085; first compound 0.3162 µM) was 1.25, the relative viability (NCI-H2085; first compound 1 µM) was 1.03 and the relative viability (ChaGo-K-1; first compound 0.01 µM) was 0.934. It also gave a relative viability (ChaGo-K-1; first compound 0.03162 µM) of 1, a relative viability (ChaGo-K-1; first compound 0.1 µM) of 0.913 and a relative viability (ChaGo-K-1; first compound 0.3162 µM) of 0.813. It also gave a relative viability (ChaGo-K-1; first compound 1 µM) of 0.664, a relative viability (RERF-LC-KJ; first compound 0.01 µM) of 1.15 and a relative viability (RERF-LC-KJ; first compound 0.03162 µM) of 0.913. The relative viability (RERF-LC-KJ; first compound 0.1 µM) was 1.12, the relative viability (RERF-LC-KJ; first compound 0.3162 µM) was 1.21 and the relative viability (RERF-LC-KJ; first compound 1 µM) was 0.878. The relative viability (HCC-78; first compound 0.01 µM) was 0.822, the relative viability (HCC-78; first compound 0.03162 µM) was 0.807 and the relative viability (HCC-78; first compound 0.1 µM) was 0.792. The relative viability (HCC-78; first compound 0.3162 µM) was 0.714, the relative viability (HCC-78; first compound 1 µM) was 0.401 and the relative viability (NCI-H2405; first compound 0.01 µM) was 0.812. The relative viability (NCI-H2405; first compound 0.03162 µM) was 0.925, the relative viability (NCI-H2405; first compound 0.1 µM) was 0.873 and the relative viability (NCI-H2405; first compound 0.3162 µM) was 0.675. The relative viability (NCI-H2405; first compound 1 µM) was 0.244.
